This is an account of results in patent US20170073306A1, “POTENT INHIBITORS OF HUMAN CARBONIC ANHYDRASE II AND BOVINE CARBONIC ANHYDRASE II AND THEIR MECHANISM OF ACTION” (priority 2015, published 2017).

One series in a line: MTT cytotoxicity assay. Type of series: cell-based. As to conditions: mouse, 3T3 mouse fibroblast cells, 3T3 cells, 50% growth inhibition, read-out: Cytotoxicity IC50 ± SD. The method, then: Cytotoxicity studies were performed using a colorimetric assay that measures the reduction of 3-(4,5-dimethythiazol-2-yl)-2,5-diphenyl tetrazolium bromide (MTT) (yellow in color), by mitochondrial enzyme (i.e. succinate dehydrogenase). The MTT enters into the mitochondria of cell, where it is reduced to an insoluble formazan salt (purple in color). The extent of MTT reduction to formazan within cells was measured spectrophotometrically. As reduction of MTT can only occur in metabolically active cells the level of activity is actually a measure of the viability of the cells^22.
Mouse fibroblast cell line 3T3 was cultured in DMEM, supplemented with 5% of FBS, 100 IU/ml of penicillin and 100 μg/ml of streptomycin, and kept at 37° C. in 5% CO2 incubator. For the preparation of cell culture 100 μL/well of cell solution (5×10^4 cells/ml) was added into 96-well plate. The plate was incubated for overnight, and fresh medium was added after the removal of old medium. The test compounds were also added in different concentrations into the plate and plate was again incubated for 48 hrs. After the completion of this incubation period 200 μL MTT (0.5 mg/ml) was added and plate was again incubated for 4 hrs, after this final incubation 100 μL of DMSO was added to each well. The level of MTT reduction to formazan was evaluated by change in absorbance at 540 nm using a micro plate reader (Spectra Max plus, Molecular Devices, CA, USA).

For series [1], the target named is T1, Human Carbonic Anhydrase-II (human erythrocyte CA-II) (Homo sapiens, UniProt P00918).
T1 construct: purified human erythrocyte CA-II; from tissue; host or cells: human erythrocytes
The experiment in a line: HCA-II inhibitory activity, 4-nitrophenyl acetate spectrophotometric assay. The series is classed as biochemical. The note with it: 4-nitrophenyl acetate 0.7 mM, pH 7.4, 25° C., 15 min preincubation; read-out: IC50 ± S.E.M. HCA-II. As for the experimental part:
(§1) Nineteen different analogues of benzamide sulfonamides were evaluated for carbonic anhydrase-II inhibition. The rate of catalyzed reaction was monitored by the amount of product formation by using the chromogenic substrate i.e., 4-nitrophenyl acetate.
Hydrolysis of 4-NPA (a colorless compound): yields 4-nitrophenol and […]. The reaction is monitored by quantifying the formation of 4-nitrophenol, a yellow colored compound.
In successive experiments, HEPES-tris was used as a buffer for the reaction at final concentration of 20 mM, with 7.4 pH. The total reaction volume of 200 μL includes, 140 μL of the HEPES-tris, 20 μL of test compound diluted in DMSO (20 μL of DMSO as a control sample), 20 μL of purified human erythrocyte CA-II (0.1 mg/mL) prepared in deionized water and 20 μL of a solution of 4-NPA (0.7 mM diluted in ethanol). Adhesion of enzyme with the plastic-ware was avoided by the addition of bovine serum albumin (1 mg/mL).
The 20 μL of test compound was incubated with enzyme for a period of 15 min. The rate of product formation was monitored with the addition of 20 μL substrate prepared in ethanol at a final concentration of 0.7 mM 4-nitrophenyl acetate at 25° C. for a period of 30 min with regular interval of 1 min.
The assay was performed in triplicates by using 96-well flat bottom plate.
The enzyme inhibitory activities were calculated using the following formula: […]
(§2) Where test is the enzyme activity with sample and control is the enzyme activity without sample. The IC50 of the compounds were calculated by using EZ-Fit Enzyme Kinetic Program (Perrella Scientific Inc. Amhrest, U.S.A).

Series [2] deals with T2, Bovine Carbonic Anhydrase-II (Bos taurus, UniProt P00921).
T2 construct: pure bovine erythrocyte CA-II; from tissue; host or cells: bovine erythrocytes
T2 sequence (P00921 whole entry): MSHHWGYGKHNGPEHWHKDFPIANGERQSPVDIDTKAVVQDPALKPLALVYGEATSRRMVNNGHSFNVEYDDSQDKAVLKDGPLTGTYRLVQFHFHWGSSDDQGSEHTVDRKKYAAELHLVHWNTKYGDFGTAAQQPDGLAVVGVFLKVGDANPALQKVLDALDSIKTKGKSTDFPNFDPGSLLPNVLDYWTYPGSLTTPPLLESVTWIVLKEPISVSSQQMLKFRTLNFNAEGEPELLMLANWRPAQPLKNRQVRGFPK
In words: Kinetics studies (Lineweaver-Burk, Dixon plots) against Bovine Carbonic Anhydrase-II. Type of series: biochemical. On the set-up: Vmax app: unit not given here. The note with it: for Type of Inhibition: Lineweaver-Burk / Dixon plots; for Vmax app: apparent Vmax with inhibitor (0.2-0.00625 μM); for Vmax: enzyme Vmax without inhibitor; for Ki: from secondary replots / Dixon plot, read-out: Ki. As for the experimental part: FIG. 2B depicts the double reciprocal plot for Ki determination which is between Slope Vs Inhibitor Conc.
FIG. 3B depicts the double reciprocal plot for Ki determination which is between Slope Vs Inhibitor Conc.
Kinetics studies were performed for each analogue. […] The Grafit version 7.0 was used for the construction of Lineveawer-Burk plots and their secondary replots.

The target of series [3] is T3, Bovine Carbonic Anhydrase-II (bovine erythrocyte CA-II) (Bos taurus, UniProt P00921).
T3 construct: pure bovine erythrocyte CA-II; from tissue; host or cells: bovine erythrocytes
T3 sequence (P00921 whole entry): as above
In words: Bovine carbonic anhydrase-II inhibition, 4-nitrophenyl acetate spectrophotometric assay. The series is classed as biochemical. The note with it: 4-nitrophenyl acetate 0.7 mM, pH 7.4, 15 min preincubation; read-out: IC50 ± S.E.M. BCA-II. As for the experimental part:
as §1
4-Nitrophenyl acetate (4-NPA) is a colorless compound which is used as a substrate in carbonic anhydrase inhibition assay. The reaction involves the hydrolysis of 4-nitrophenyl acetate into […] and 4-nitrophenol a yellow colored compound. During this experiment, HEPES-tris buffer was used at 20 mM concentration with pH 7.4.
After 15 min of incubation of the enzyme with the test compound, the substrate was added to initiate the reaction. The reaction was carried out in triplicate with different concentrations of test compounds was used.
In this assay protocol, the reaction was performed by using a 96-well flat bottom plate.
The amount of product formation was measured at 400 nm for 30 min with 1 min interval, multiplate reader SPECTRA max 340 (Molecular Devices, CA, USA) was used to monitor the product formation.
The enzyme inhibitory activities were calculated using the following formula:
% Inhibition=100−(O.D of test/O.D of control)*100
as §2

On to `COc1cc(OC)cc(C(=O)NC(=S)Nc2ccc(S(N)(=O)=O)cc2)c1` [Compound 16, 3,5-Dimethoxy-N-(4-sulfamoylphenylcarbamothioyl)benzamide], for which the IC50 at 48 h in “MTT cytotoxicity assay” was greater than 30 µM. For the same compound, the IC50 in series [1] is 0.23 ± 0.03 µM. For the same compound, in series [2], the “Type of Inhibition” value is reported as “Noncompetitive”, the Vmax app came to 37.31, the Vmax is 72.46 (μM/L/min)^−1 and the Ki worked out at 0.4 µM. Further, the IC50 in series [3] is 0.11 ± 0.005 µM.
Consider `NS(=O)(=O)c1ccc(NC(=S)NC(=O)C2CCCO2)cc1` (stereo not drawn) [Compound 17, N-(4-Sulfamoylphenylcarbamothioyl)tetrahydrofuran-2-carboxamide], for which the half-maximal inhibitory concentration (IC50) at 48 h in the series “MTT cytotoxicity assay” is greater than 30 µM. Besides, the half-maximal inhibitory concentration (IC50) in series [1] was 0.27 ± 0.06 µM. Further, in series [2], the “Type of Inhibition” value is “Mixed type”, the Vmax app is recorded as 26.88, the Vmax is listed as 111.11 (μM/L/min)^−1 and the Ki amounted to 0.059 µM. In addition, the IC50 in series [3] worked out at 0.12 ± 0.02 µM.
As to `CCC(C(=O)NC(=S)Nc1ccc(S(N)(=O)=O)cc1)c1ccccc1` (stereo not drawn) [Compound 18, 2-Phenyl-N-(4-sulfamoylphenylcarbamothioyl)butanamide], the half-maximal inhibitory concentration (IC50) at 48 h in “MTT cytotoxicity assay” is greater than 30 µM. Besides, in series [1], the IC50 is 0.25 ± 0.01 µM. Also, in series [2], the “Type of Inhibition” value is “Mixed type”, the Vmax app is 12.93, the Vmax is on record as 42.73 (μM/L/min)^−1 and the Ki stood at 0.16 µM. Besides, the concentration for half-maximal inhibition (IC50) in series [3] is 0.2 ± 0.001 µM.
`NS(=O)(=O)c1ccc(NC(=S)NC(=O)c2ccc(Cl)cc2Cl)cc1` [Compound 19, 2,4-Dichloro-N-(4-sulfamoylphenylcarbamothioyl)benzamide]: the IC50 at 48 h in the series “MTT cytotoxicity assay” is greater than 30 µM. Besides, the IC50 in series [1] came to 0.1 ± 0.04 µM. In series [2], the Vmax app amounted to 12.33, the Vmax is 79.36 (μM/L/min)^−1 and the Ki was found to be 0.046 µM. In addition, the IC50 in series [3] was found to be 0.06 ± 0.001 µM.
